# Measured values: patent publication USRE42700E1, “Induction of apoptosis in cancer cells” (Sanford-Burnham Medical Research Institute, priority 2001, dated 2011)
# What was measured:
# RARα = RARα (Homo sapiens, UniProt P10276); assay: activation of RARα on the (TREpal)2-tk-CAT reporter construct; format: cell-based; conditions: 1.0 μM
# RARβ = RARβ (Homo sapiens, UniProt P10826); assay: activation of RARβ on the (TREpal)2-tk-CAT reporter construct; format: cell-based; conditions: 1.0 μM
# RARγ = RARγ (Homo sapiens, UniProt P13631); assay: activation of RARγ on the (TREpal)2-tk-CAT reporter construct; format: cell-based
# RARγ, sequence (P13631 whole entry, species assumed): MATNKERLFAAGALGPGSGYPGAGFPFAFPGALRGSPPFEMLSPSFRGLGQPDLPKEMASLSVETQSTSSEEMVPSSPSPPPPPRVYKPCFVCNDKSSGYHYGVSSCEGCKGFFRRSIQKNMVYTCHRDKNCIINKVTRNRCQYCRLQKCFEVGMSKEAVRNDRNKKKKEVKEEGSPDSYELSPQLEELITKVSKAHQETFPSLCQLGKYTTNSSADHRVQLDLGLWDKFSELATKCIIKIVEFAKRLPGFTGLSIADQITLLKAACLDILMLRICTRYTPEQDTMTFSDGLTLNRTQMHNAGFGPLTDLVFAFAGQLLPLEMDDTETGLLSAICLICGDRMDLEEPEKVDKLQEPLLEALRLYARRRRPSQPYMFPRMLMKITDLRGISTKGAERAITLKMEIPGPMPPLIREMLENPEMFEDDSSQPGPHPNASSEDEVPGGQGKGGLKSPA
# [1] = tested on: human acute megakaryocytic leukemia cell line M07e; assay: M07e cell growth / proliferation; format: cell-based
# Description: Cell Growth: IL-3-transfected M07e cells have been described by Thacker, D. J., et al., Leukemia 8: 871-877 (1994). Cells were grown in RPMI supplemented with 5 percent heat-inactivated fetal bovine serum (FBS) and 25 μg/ml gentamycin in a […], 5% CO2, and 100% humidity environment. Leukemic cells were obtained from patients who met the criteria for the diagnosis of AML or CML in blast crisis (see Table 1). Studies were approved by the Wayne State University Institutional Review Board. Informed consent was obtained from all patients. Leukemic blasts from patients were isolated using Ficoll hypaque. Cells at the interface between plasma and red blood cells were diluted with sterile PBS, then layered over Ficoll hypaque (1.077 density), and the leukemic cells collected at the interface. The sample to be studied represented greater than 90% blasts. The patient leukemia samples were grown in RPMI medium supplemented with 10% FBS, gentamycin (25 μg/ml), IL-3 (20 ng/ml), SCF (25 ng/ml), GM-CSF (20 ng/ml) and G-CSF (20 ng/ml). Cell growth was assessed using a cell proliferation kit.
# patient leukemic cells = assay: apoptosis of patient leukemic cells by tunnel assay and flow cytometry; format: cell-based, human; conditions: for apoptotic cells: 1 μM, 24 hours
# Description: Apoptosis Quantification: Staining of apoptotic cells was performed as described by Gavreli, Y., et al., (J. Cell. Biol. 119: 493-501 (1992)) and Whitacre, C. M., et al., (Cancer Res. 55: 3697-3701 (1995)). After 3-Cl-AHPC treatment, cells were harvested, washed with PBS and resuspended at 1×10^6 cells/ml. Cell suspensions (50 μl) were stained with […] of acridine orange solution ([…]) in PBS in the dark. Cells displaying fragmented DNA were detected using a fluorescent microscope. Apoptotic cells were also detected using a kit. Cells that incorporated fluorescein labeled deoxyuridine triphosphate were detected using flow cytometry.
# Flow Cytometry: Flow cytometry was performed on a flow cytometer equipped with an argon ion laser tuned to 15 mW at […] for fluorescence excitation and light scattering. Fluorescein isothiocyanate (FITC) fluorescence was detected using a 530/30 nm band pass filter and propidium iodide (PI) fluorescence was reflected with a 560-nm short pass dichroic filter using a 585/42-nm band pass filter. The doublet discrimination module was used to identify cell aggregates (Sharpless, T., et al., Acta Cytologica 19: 577-581 (1975)). Typically, 20,000 events of list mode data were saved and analyzed.
# [2] = CFU-GM colony formation, human bone marrow; format: cell-based; conditions: bone marrow CFU-GM progenitor cells
# Description: CFU-GM Colony Formation: The CFU-GM colony assay was performed as described in Parchment et al., (J. Natl. Cancer Inst. 86: 273-280 (1994)).
# [3] = tested on: PARP in M07e cells and patient leukemic blasts; assay: PARP cleavage by Western blot; format: cell-based, human; conditions: 1 μM, by 24 hours
# Description: Western Blots: Western blots were performed according to the protocol of Sheikh, M. S., et al., (Oncogene, 9: 3407-3415 (1994)). Logarithmically growing cells were treated with 3-Cl-AHPC for various times and cells were harvested and lysed in Laemmli lysis buffer (0.5 M Tris-HCl, pH 6.8, 0.002M EDTA, 10% glycerol, 10% sodium dodecyl sulfate (SDS), and 5% β-mercaptoethanol). Protein lysates (50 μg/lane) were electrophoresed on 12% SDS-polyacrylamide gels and transferred to nitrocellulose membranes. Membranes were blocked with 5% nonfat dried milk in PBS/0.5% Tween 20 and then incubated with the appropriate antibodies. Horseradish peroxidase-conjugated rabbit anti-mouse IgG was used as the secondary antibody, and bands were developed using the Amersham ECL non-radioactive method.
# Murine AML 1498 cells = assay: murine AML 1498 implanted intravenously in C57BL/6 mice
# Excerpt: Tumor Maintenance: Murine AML1498 cells were maintained in the mouse strain of origin (C57BL/6) and transplanted into this same inbred strain chemotherapy trials. Individual mouse body weights for each experiment were within five grams, and all mice were more than 20 grams (mean) at the start of therapy. Mice were supplied food and water ad libitum.
# Treatment was started the day after implantation of AML cells.
# End Points for Assessing Antitumor Activity: The following quantitative endpoints were used to assess antitumor activity
# a) Percent Increase in Lifespan (% ILS): For leukemic mice: • % ILS=(T−C)/C×100; in which C=median day of death of control group and T=median day of death of treated group. Survival was the endpoint; with moribund mice sacrificed. Cause of death was verified by necropsy.
# b) Calculation of Tumor Cell Kill: For leukemic survival trials, the log10 cell kill was calculated from the following formula:
# [formula] where T is median day of death for treated group and C is median day of death for control group (Corbett, T. H., et al., Invest. New Drugs, 17: 17-27 (1999) and Teicher, B. A., In vivo tumor response end points, In Tumor Models in Cancer Research, B. Teicher, editor, Humana Press Inc./Totowa, N.J., pp. 593-616 (2001)). Td is determined from differences in the median days of death of the titered control groups.
# MCF-7 = assay: apoptosis induction / cell death in breast cancer cells; format: cell-based, human
# MDA-MB-231 = assay: as above; format: cell-based, human
# [4] = tested on: human MX-1 breast adenocarcinoma cells; assay: MX-1 human mammary adenocarcinoma growth in SCID mice; format: in vivo
# [5] = total dose 80 mg/kg, qd 1-5, 5 × 10^6 cells
# [6] = total dose 115 mg/kg, qd 1-5, 5 × 10^6 cells
# [7] = total dose 140 mg/kg, qd 1-4, 5 × 10^6 cells
# RARβ, sequence (P10826 whole entry, species assumed): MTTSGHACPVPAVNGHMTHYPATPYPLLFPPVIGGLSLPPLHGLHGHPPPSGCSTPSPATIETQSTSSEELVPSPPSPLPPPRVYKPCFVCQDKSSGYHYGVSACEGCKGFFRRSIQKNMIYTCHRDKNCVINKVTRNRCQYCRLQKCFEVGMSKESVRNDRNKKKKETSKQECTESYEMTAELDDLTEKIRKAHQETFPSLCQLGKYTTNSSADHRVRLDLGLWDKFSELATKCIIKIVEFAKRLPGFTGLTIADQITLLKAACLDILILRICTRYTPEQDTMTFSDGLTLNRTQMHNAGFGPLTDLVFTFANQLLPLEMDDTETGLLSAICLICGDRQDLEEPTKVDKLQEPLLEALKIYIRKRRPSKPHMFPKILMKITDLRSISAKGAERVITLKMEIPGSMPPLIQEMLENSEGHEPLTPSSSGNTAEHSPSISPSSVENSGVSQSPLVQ
# RARα, sequence (P10276 whole entry, species assumed): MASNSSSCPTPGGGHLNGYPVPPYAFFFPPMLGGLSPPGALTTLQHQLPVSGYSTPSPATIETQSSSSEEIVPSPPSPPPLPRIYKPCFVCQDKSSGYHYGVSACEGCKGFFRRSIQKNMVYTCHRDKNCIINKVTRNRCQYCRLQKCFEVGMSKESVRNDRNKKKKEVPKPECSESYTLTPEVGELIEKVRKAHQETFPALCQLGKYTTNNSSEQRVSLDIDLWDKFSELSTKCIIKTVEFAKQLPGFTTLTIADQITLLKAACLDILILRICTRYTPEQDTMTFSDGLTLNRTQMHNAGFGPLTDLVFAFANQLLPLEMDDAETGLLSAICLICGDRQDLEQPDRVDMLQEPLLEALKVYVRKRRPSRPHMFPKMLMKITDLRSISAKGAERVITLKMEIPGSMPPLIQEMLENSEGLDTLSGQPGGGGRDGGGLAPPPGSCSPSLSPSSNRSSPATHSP
smiles,measurement,setting,value
"O=C(O)/C=C/c1ccc(-c2ccc(O)c(C34CC5CC(CC(C5)C3)C4)c2)c(Cl)c1 [Example 3-Cl-AHPC, (E)-4-[3-(1-Adamantyl)-4-hydroxyphenyl]-3-chlorocinnamic acid]",activation of RARα,RARα,does not activate
same,activation of RARβ,RARβ,does not activate
same,activation of RARγ relative to that of 1.0 μM tRA,RARγ,less than 10%
same,concentration required to inhibit growth of M07e cells,[1],0.2 µM
same,inhibition of growth,[1]; 0.2 μM,inhibition of growth
same,inhibition of proliferation,[1]; varying concentrations over time,progressive increase in the inhibition of proliferation
same,patient leukemic cells that underwent apoptosis,patient leukemic cells,over 80%
same,apoptotic cells,patient leukemic cells; patient 1,67%
same,apoptotic cells,patient leukemic cells; patient 10,80%
same,IC90,[2],> 15000 nM
same,PARP cleavage,[3],rapid cleavage of 116-Kd PARP
same,animal deaths,Murine AML 1498 cells; 140 mg/kg total dose over four days,no animal deaths
same,Body Wt. Loss,Murine AML 1498 cells; [5],+0.0%
same,ILS,Murine AML 1498 cells; [5],50%
same,Log cell kill,Murine AML 1498 cells; [5],2.6
same,Mean Body Wt. Loss,Murine AML 1498 cells; [5],+0.0 g/mouse
same,Median Day of Tumor Death (range),Murine AML 1498 cells; [5],"9 (8,9,9,9,10)"
same,ILS,Murine AML 1498 cells; [6],83%
same,Log cell kill,Murine AML 1498 cells; [6],3.3
same,Median Day of Tumor Death (range),Murine AML 1498 cells; [6],"11 (10,10,11,11,11)"
same,Mean Body Wt. Loss,"Murine AML 1498 cells; total dose 115 mg/kg, qd 1-5, 5 × 10^6 cells, negative = loss",−1.2 g/mouse
same,ILS,Murine AML 1498 cells; [7],83%
same,Log cell kill,Murine AML 1498 cells; [7],3.3
same,Median Day of Tumor Death (range),Murine AML 1498 cells; [7],"11(10,11,11,11,11)"
same,Mean Body Wt. Loss,"Murine AML 1498 cells; total dose 140 mg/kg, qd 1-4, 5 × 10^6 cells, negative = loss",−3.6 g/mouse
same,ED50 (concentration that results in 50% cell death),MCF-7,850 nM
same,ED50 (concentration that results in 50% cell death),MDA-MB-231,650 nM
same,animal deaths,[4]; dose not stated (Table 5),no animal deaths
same,inhibition of tumor growth,[4]; dose not stated (Table 5),70%
same,weight loss,[4]; dose not stated (Table 5),less than 4%
same,% body wt loss,"[4]; total dose 91 mg/kg, Qd (3-9)",−2%
same,Drug deaths,"[4]; total dose 91 mg/kg, Qd (3-9)",0/5
same,T/C %,"[4]; total dose 91 mg/kg, Qd (3-9)",62%
same,% body wt loss,"[4]; total dose 140 mg/kg, Qd (3-9)",−4%
same,Drug deaths,"[4]; total dose 140 mg/kg, Qd (3-9)",0/5
same,T/C %,"[4]; total dose 140 mg/kg, Qd (3-9)",56%
same,% body wt loss,"[4]; total dose 210 mg/kg, Qd (3-9)",−4%
same,Drug deaths,"[4]; total dose 210 mg/kg, Qd (3-9)",0/5
same,Log cell kill,"[4]; total dose 210 mg/kg, Qd (3-9)",1.2
same,T/C %,"[4]; total dose 210 mg/kg, Qd (3-9)",30%
